The values that follow are results of earlier work, collected in article PMC13291975, “Brighter NIR Bioluminescence System for Mammalian Cell Bioimaging Based on Engineered Railroadworm Luciferase and 6′-Aminoluciferin Analogues” (Chemical & Biomedical Imaging, 2026).

The structures appear in SMILES notation.

In this data set the target is T1, Phrixotrix hirtus railroadworm red-emitting luciferase (PxRE; RE-WT) (Phrixothrix hirtus, UniProt Q9U4U7).
T1 construct: N-terminal His-tag, pCold vector, expressed in E. coli BL21-DE3, Ni-agarose purified
As to the kind of experiment: bioluminescence peak intensity, Lineweaver-Burk. It counts as biochemical. The settings on record: read-out: K M LH2; ATP/MgSO4, 0.1 M Tris-HCl pH 8.0; kcat in relative luminometer counts; error not given, value possibly from the authors' earlier work; the text says 'Previously, we showed'. From the text: bioluminescence peak intensity, Lineweaver-Burk on Phrixotrix hirtus railroadworm red-emitting luciferase (PxRE; RE-WT)

T1 sequence (Q9U4U7 entry or part of it): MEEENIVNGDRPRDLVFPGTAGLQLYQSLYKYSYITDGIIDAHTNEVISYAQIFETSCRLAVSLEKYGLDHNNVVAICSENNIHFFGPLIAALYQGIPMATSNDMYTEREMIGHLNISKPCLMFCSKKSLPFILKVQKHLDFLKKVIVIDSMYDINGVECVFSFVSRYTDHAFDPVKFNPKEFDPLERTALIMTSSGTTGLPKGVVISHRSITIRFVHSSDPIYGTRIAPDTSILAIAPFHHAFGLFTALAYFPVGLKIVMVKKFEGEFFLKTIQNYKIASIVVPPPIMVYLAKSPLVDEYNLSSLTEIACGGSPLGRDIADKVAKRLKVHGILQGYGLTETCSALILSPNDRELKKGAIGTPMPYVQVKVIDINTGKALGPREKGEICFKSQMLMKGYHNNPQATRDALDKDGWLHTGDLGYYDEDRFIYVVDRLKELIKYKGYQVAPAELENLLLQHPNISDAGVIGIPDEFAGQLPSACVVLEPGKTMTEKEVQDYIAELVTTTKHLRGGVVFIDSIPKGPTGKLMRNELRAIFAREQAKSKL

As to `O=C(O)[C@H]1CSC(c2nc3ccc(O)cc3s2)=N1` [LH2, D-luciferin], the Km was 7 µM.
